Measured values as given in ChEMBL document CHEMBL4622956, “Amide derivatives of Gallic acid: Design, synthesis and evaluation of inhibitory activities against in vitro α-synuclein aggregation” (Bioorg Med Chem, 2020).

Target: Alpha-synuclein (Homo sapiens, UniProt P37840)
Experiment: Inhibition of alpha-synuclein (unknown origin) aggregation incubated for 3 days by thioflavin T based fluorescence assay

Q: How did the IC50 turn out when `O=C(O)c1cc(O)c(O)c(O)c1` [GALLIC ACID] was run?
A: The IC50 was 4.43 µM.
